From article PMC8063935, “Amphipathic Peptide Antibiotics with Potent Activity against Multidrug-Resistant Pathogens” (Pharmaceutics, 2021)
≈ marks a conversion by molar mass, not a printed value. Where two headings read alike, the source gives them in different places. Where a SMILES comes first, the peptide text is derived from it.

How the values were obtained:
[1] = system: P. cibarius HNCF44W (blaNDM-1 + tet(X6)); assay: MIC / IC50, micro-broth dilution; type: cell-based; settings: for MIC: micro-broth dilution, CLSI 2018, ~1.5 × 10^6 CFUs per mL, 37 °C, 16–18 h; for IC50: OD600 of micro-broth dilution plates, four-parameter fit
Method: (§1) The MICs of all drugs were determined by micro-broth dilution method according to CLSI 2018 guidelines. The bacterial suspension used in the experiment was appropriate 1.5 × 10^6 colony-forming units (CFUs) per mL and mixed with the drug solution in a sterilized 96-well microtiter plate (Corning, New York, USA), then incubated at 37 °C for 16–18 h. MIC value was defined as the minimum drug concentration without visible bacteria. Meanwhile, the density of the bacteria at 600 nm was measured, and the corresponding IC50 was calculated using log (inhibitor) vs. response variable slope (four parameters) in Graphpad Prism version 8.3.0 software (San Diego, CA, USA). To assess the role of ROS production in the antibacterial activity of WW307, increasing concentrations of N-acetylcysteine (NAC) from 0 to 5 mM were added in culture medium, followed by MICs test.

[2] = system: A. baumannii C222 (tet(X6)); assay: microbe, parasite or virus in culture; type: cell-based, Acinetobacter baumannii; settings: for IC50: OD600 of micro-broth dilution plates, four-parameter fit
Method: as §1

S. aureus G16 (RIF^R) = assay: microbe, parasite or virus in culture; type: cell-based, Staphylococcus aureus; settings: for IC50: OD600 of micro-broth dilution plates, four-parameter fit
Method: as §1

MRSA T144 = assay: microbe, parasite or virus in culture; type: cell-based, Staphylococcus aureus; settings: for MIC: micro-broth dilution, CLSI 2018, ~1.5 × 10^6 CFUs per mL, 37 °C, 16–18 h; for IC50: OD600 of micro-broth dilution plates, four-parameter fit
Method: as §1

E. coli G6 (blaNDM-5) = assay: MIC / IC50, micro-broth dilution; type: cell-based, Escherichia coli; settings: for MIC: micro-broth dilution, CLSI 2018, ~1.5 × 10^6 CFUs per mL, 37 °C, 16–18 h; for IC50: OD600 of micro-broth dilution plates, four-parameter fit
Method: as §1

E. coli C3 (blaNDM-1) = assay: MIC / IC50, micro-broth dilution; type: cell-based, Escherichia coli; settings: for MIC: micro-broth dilution, CLSI 2018, ~1.5 × 10^6 CFUs per mL, 37 °C, 16–18 h; for IC50: OD600 of micro-broth dilution plates, four-parameter fit
Method: as §1

E. coli CP131 (mcr-3) = assay: MIC / IC50, micro-broth dilution; type: cell-based, Escherichia coli; settings: for IC50: OD600 of micro-broth dilution plates, four-parameter fit
Method: as §1

E. coli G92 (mcr-1) = assay: microbe, parasite or virus in culture; type: cell-based, Escherichia coli; settings: for IC50: OD600 of micro-broth dilution plates, four-parameter fit
Method: as §1

E. coli 1F28 (tet(X4)) = assay: microbe, parasite or virus in culture; type: cell-based, Escherichia coli; settings: for MIC: micro-broth dilution, CLSI 2018, ~1.5 × 10^6 CFUs per mL, 37 °C, 16–18 h; for IC50: OD600 of micro-broth dilution plates, four-parameter fit
Method: as §1

[3] = system: E. coli B2 (mcr-1 + blaNDM-5); assay: microbe, parasite or virus in culture; type: cell-based, Escherichia coli; settings: for IC50: OD600 of micro-broth dilution plates, four-parameter fit
Method: as §1

Sheep RBCs = assay: Hemolysis analysis; type: cell-based; settings: 8% sheep red blood cell suspension, 37 °C, 1 h, released hemoglobin at 576 nm; PBS negative, ddH2O positive control
Method: The hemolytic activity on all peptides was evaluated based on previous report. Briefly, fresh Sheep RBCs were washed twice with phosphate buffer (PBS), and then 8% red blood cell suspension was prepared. The increasing concentrations of AMPs and melittin were mixed with 8% red blood cell suspension, respectively, and incubated at 37 °C for 1 h. The sterilized PBS and double-distilled water (ddH2O) were used as blank and positive control, respectively. Afterwards, the supernatant was centrifuged to measure the absorption of released hemoglobin at 576 nm by an Infinite M200 Microplate reader (Tecan, Männedorf, Switzerland). The corresponding hemolysis rate was calculated.

[4] = Staphylococcus aureus, read-out: MIC
[5] = Escherichia coli, read-out: MIC
[6] = A. baumannii C222 (tet(X6)), micro-broth dilution, CLSI 2018, ~1.5 × 10^6 CFUs per mL, 37 °C, 16–18 h
[7] = S. aureus G16 (RIF^R), micro-broth dilution, CLSI 2018, ~1.5 × 10^6 CFUs per mL, 37 °C, 16–18 h
[8] = E. coli CP131 (mcr-3), micro-broth dilution, CLSI 2018, ~1.5 × 10^6 CFUs per mL, 37 °C, 16–18 h
[9] = E. coli G92 (mcr-1), micro-broth dilution, CLSI 2018, ~1.5 × 10^6 CFUs per mL, 37 °C, 16–18 h
[10] = E. coli B2 (mcr-1 + blaNDM-5), micro-broth dilution, CLSI 2018, ~1.5 × 10^6 CFUs per mL, 37 °C, 16–18 h

C[C@@H](O)[C@H]1C(=O)N2C(C(=O)O)=C(S[C@@H]3CN[C@H](C(=O)N(C)C)C3)[C@H](C)[C@H]12 [MEM, meropenem]
MIC ([1]; read-out: MIC): > 16 µg/mL
MIC ([2]; Acinetobacter baumannii): < 0.125 µg/mL
MIC (S. aureus G16 (RIF^R); Staphylococcus aureus): 2 µg/mL (≈ 5.22 µM)
MIC (MRSA T144; [4]): 1 µg/mL (≈ 2.61 µM)
MIC (E. coli G6 (blaNDM-5); [5]): 64 µg/mL (≈ 167 µM)
MIC (E. coli C3 (blaNDM-1); [5]): 8 µg/mL (≈ 20.9 µM)
MIC (E. coli CP131 (mcr-3); Escherichia coli): < 0.125 µg/mL
MIC (E. coli G92 (mcr-1); Escherichia coli): < 0.125 µg/mL
MIC (E. coli 1F28 (tet(X4)); [5]): 0.25 µg/mL (≈ 0.652 µM)
MIC ([3]; Escherichia coli): 32 µg/mL (≈ 83.4 µM)

CC[C@H](C)[C@H](NC(=O)CN)C(=O)NCC(=O)N[C@@H](C)C(=O)N[C@H](C(=O)N[C@@H](CC(C)C)C(=O)N[C@@H](CCCCN)C(=O)N[C@H](C(=O)N[C@@H](CC(C)C)C(=O)N[C@H](C(=O)N[C@H](C(=O)NCC(=O)N[C@@H](CC(C)C)C(=O)N1CCC[C@H]1C(=O)N[C@@H](C)C(=O)N[C@@H](CC(C)C)C(=O)N[C@H](C(=O)N[C@@H](CO)C(=O)N[C@@H](Cc1c[nH]c2ccccc12)C(=O)N[C@H](C(=O)N[C@@H](CCCCN)C(=O)N[C@@H](CCCNC(=N)N)C(=O)N[C@@H](CCCCN)C(=O)N[C@@H](CCCNC(=N)N)C(=O)N[C@@H](CCC(N)=O)C(=O)N[C@@H](CCC(N)=O)C(N)=O)[C@@H](C)CC)[C@@H](C)CC)[C@@H](C)O)[C@@H](C)O)C(C)C)C(C)C [Melittin, melittin]
IC50 [1]: 2.39 µg/mL (≈ 0.84 µM)
MIC [1]: 4 µg/mL (≈ 1.41 µM)
IC50 ([2]; A. baumannii C222 (tet(X6))): 4.16 µg/mL (≈ 1.46 µM)
MIC [2, 6]: 8 µg/mL (≈ 2.81 µM)
HL50 (peptide concentration that causes 50% hemolysis) (Sheep RBCs): 14.39 µg/mL
IC50 (S. aureus G16 (RIF^R); S. aureus G16 (RIF^R)): 1.19 µg/mL (≈ 0.418 µM)
MIC (S. aureus G16 (RIF^R); [7]): 2 µg/mL (≈ 0.703 µM)
IC50 (MRSA T144): 3.54 µg/mL (≈ 1.24 µM)
MIC (MRSA T144): 4 µg/mL (≈ 1.41 µM)
IC50 (E. coli G6 (blaNDM-5)): 2.38 µg/mL (≈ 0.836 µM)
MIC (E. coli G6 (blaNDM-5)): 4 µg/mL (≈ 1.41 µM)
IC50 (E. coli C3 (blaNDM-1)): 5.03 µg/mL (≈ 1.77 µM)
MIC (E. coli C3 (blaNDM-1)): 8 µg/mL (≈ 2.81 µM)
IC50 (E. coli CP131 (mcr-3); E. coli CP131 (mcr-3)): 3.39 µg/mL (≈ 1.19 µM)
MIC (E. coli CP131 (mcr-3); [8]): 4 µg/mL (≈ 1.41 µM)
IC50 (E. coli G92 (mcr-1); E. coli G92 (mcr-1)): 3.55 µg/mL (≈ 1.25 µM)
MIC (E. coli G92 (mcr-1); [9]): 4 µg/mL (≈ 1.41 µM)
IC50 (E. coli 1F28 (tet(X4))): 2.62 µg/mL (≈ 0.92 µM)
MIC (E. coli 1F28 (tet(X4))): 4 µg/mL (≈ 1.41 µM)
IC50 ([3]; E. coli B2 (mcr-1 + blaNDM-5)): 4.36 µg/mL
MIC [3, 10]: 8 µg/mL

CN(C)c1cc(NC(=O)CNC(C)(C)C)c(O)c2c1C[C@H]1C[C@H]3[C@H](N(C)C)C(O)=C(C(N)=O)C(=O)[C@@]3(O)C(O)=C1C2=O [TIG, tigecycline]
MIC ([1]; read-out: MIC): 64 µg/mL (≈ 109 µM)
MIC ([2]; Acinetobacter baumannii): 64 µg/mL (≈ 109 µM)
MIC (S. aureus G16 (RIF^R); Staphylococcus aureus): < 0.0625 µg/mL
MIC (MRSA T144; [4]): 0.25 µg/mL (≈ 0.427 µM)
MIC (E. coli G6 (blaNDM-5); [5]): 2 µg/mL (≈ 3.41 µM)
MIC (E. coli C3 (blaNDM-1); [5]): 2 µg/mL (≈ 3.41 µM)
MIC (E. coli CP131 (mcr-3); Escherichia coli, E. coli CP131 (mcr-3), micro-broth dilution, CLSI 2018, ~1.5 × 10^6 CFUs per mL, 37 °C, 16–18 h, read-out: MIC): 2 µg/mL (≈ 3.41 µM)
MIC (E. coli G92 (mcr-1); Escherichia coli): 4 µg/mL (≈ 6.83 µM)
MIC (E. coli 1F28 (tet(X4)); [5]): 16 µg/mL (≈ 27.3 µM)

CC(C)C[C@H](NC(=O)[C@H](Cc1c[nH]c2ccccc12)NC(=O)[C@H](Cc1c[nH]c2ccccc12)NC(=O)[C@@H](N)Cc1c[nH]c2ccccc12)C(=O)N[C@@H](CCCNC(=N)N)C(=O)N[C@@H](CCCNC(=N)N)C(=O)N[C@@H](CCCNC(=N)N)C(=O)N[C@@H](Cc1c[nH]c2ccccc12)C(N)=O [WW304] (H-WWWLRRRW-NH2)
IC50 [1]: 33.60 µg/mL (≈ 25 µM)
MIC [1]: 64 µg/mL (≈ 47.6 µM)
IC50 ([2]; A. baumannii C222 (tet(X6))): 34.74 µg/mL (≈ 25.9 µM)
MIC [2, 6]: 64 µg/mL (≈ 47.6 µM)
HL50 (peptide concentration that causes 50% hemolysis) (Sheep RBCs): > 128 µg/mL
IC50 (S. aureus G16 (RIF^R); S. aureus G16 (RIF^R)): 2.11 µg/mL (≈ 1.57 µM)
MIC (S. aureus G16 (RIF^R); [7]): 8 µg/mL (≈ 5.95 µM)
IC50 (MRSA T144): 4.59 µg/mL (≈ 3.42 µM)
MIC (MRSA T144): 8 µg/mL (≈ 5.95 µM)
IC50 (E. coli G6 (blaNDM-5)): 36.04 µg/mL (≈ 26.8 µM)
MIC (E. coli G6 (blaNDM-5)): 64 µg/mL (≈ 47.6 µM)
IC50 (E. coli C3 (blaNDM-1)): 34.76 µg/mL (≈ 25.9 µM)
MIC (E. coli C3 (blaNDM-1)): 64 µg/mL (≈ 47.6 µM)
IC50 (E. coli CP131 (mcr-3); E. coli CP131 (mcr-3)): 18.26 µg/mL (≈ 13.6 µM)
MIC (E. coli CP131 (mcr-3); [8]): 32 µg/mL (≈ 23.8 µM)
IC50 (E. coli G92 (mcr-1); E. coli G92 (mcr-1)): 31.96 µg/mL (≈ 23.8 µM)
MIC (E. coli G92 (mcr-1); [9]): 64 µg/mL (≈ 47.6 µM)
IC50 (E. coli 1F28 (tet(X4))): 18.13 µg/mL (≈ 13.5 µM)
MIC (E. coli 1F28 (tet(X4))): 32 µg/mL (≈ 23.8 µM)
IC50 ([3]; E. coli B2 (mcr-1 + blaNDM-5)): 36.12 µg/mL
MIC [3, 10]: 64 µg/mL

colistin
MIC [1]: >256 µg/mL
MIC [2, 6]: <0.125 µg/mL
MIC (S. aureus G16 (RIF^R); [7]): 1 µg/mL
MIC (MRSA T144): 16 µg/mL
MIC (E. coli G6 (blaNDM-5)): 0.5 µg/mL
MIC (E. coli C3 (blaNDM-1)): <0.125 µg/mL
MIC (E. coli CP131 (mcr-3); [8]): 4 µg/mL
MIC (E. coli G92 (mcr-1); [9]): 4 µg/mL
MIC (E. coli 1F28 (tet(X4))): 0.125 µg/mL
MIC [3, 10]: 8 µg/mL
